From patent US20260000692A1, “Substituted N-(Pyridin-2-yl)Acetamide Derivatives as CDK12/13 Inhibitors” (Aurigene Oncology Limited, priority 2022, published 2026)

Molecular target: CDK12 (Homo sapiens, UniProt Q9NYV4)
Assay: Biochemical assay for CDK12 (LANCE TR-FRET, IC50 determination)
Settings: for IC50: CDK12, IC50 class, read-out: IC50 μM (in range); for inhibition at 10 µM: compound at 10 μM, read-out: CDK12 % Inhibition @ 10 μM
Experimental: Biochemical Assay for CDK12 (IC50 Determination):
The inhibitory activity of the test compounds was assessed by the LANCE TR-FRET assay, which detects the ATP-dependent phosphorylation of an ULight-4E-BP1 (Thr37/Thr46) substrate peptide (100 nM) by CDK12 (30 nM). Briefly, the enzyme reaction was run in reaction buffer (25 mM HEPES (pH 7.5), 10 mM MgCl2, […], 0.01% Triton x, 1 mM DTT). The assay was performed in 384-well plate format. The end concentration of the ATP substrate was […], and that of the ULight-4E-BP1 (Thr37/Thr46) substrate peptide was 100 nM, and of CDK12 was 30 nM. Pre-incubation of the compound and enzyme was performed for 60 min at room temperature. After 60 min incubation at room temperature, the reaction was terminated by the addition of 40 mM EDTA and 0.5 nM Eu-labeled anti-phospho-eIF4E-binding protein (Thr37/46) antibody in LANCE detection buffer. Time-resolved fluorescence (excitation, 320 nm; emission donor, 615 nm; emission acceptor, 665 nm) was monitored by using 2030 multilabel reader Victor5 (PerkinElmer). The Fluorescence emission of the samples were measured and the ratio was plotted against the compound concentration to generate the dose response curve. The IC50 values were derived by fitting a sigmoidal dose-response curve to a plot of assay readout over inhibitor concentration. All fits were computed with the program Prism 5.03 (Graph Pad Software, San Diego, CA). The % inhibition values at […] were calculated with respect to enzyme activity.

Sequence of CDK12 (Q9NYV4 whole entry): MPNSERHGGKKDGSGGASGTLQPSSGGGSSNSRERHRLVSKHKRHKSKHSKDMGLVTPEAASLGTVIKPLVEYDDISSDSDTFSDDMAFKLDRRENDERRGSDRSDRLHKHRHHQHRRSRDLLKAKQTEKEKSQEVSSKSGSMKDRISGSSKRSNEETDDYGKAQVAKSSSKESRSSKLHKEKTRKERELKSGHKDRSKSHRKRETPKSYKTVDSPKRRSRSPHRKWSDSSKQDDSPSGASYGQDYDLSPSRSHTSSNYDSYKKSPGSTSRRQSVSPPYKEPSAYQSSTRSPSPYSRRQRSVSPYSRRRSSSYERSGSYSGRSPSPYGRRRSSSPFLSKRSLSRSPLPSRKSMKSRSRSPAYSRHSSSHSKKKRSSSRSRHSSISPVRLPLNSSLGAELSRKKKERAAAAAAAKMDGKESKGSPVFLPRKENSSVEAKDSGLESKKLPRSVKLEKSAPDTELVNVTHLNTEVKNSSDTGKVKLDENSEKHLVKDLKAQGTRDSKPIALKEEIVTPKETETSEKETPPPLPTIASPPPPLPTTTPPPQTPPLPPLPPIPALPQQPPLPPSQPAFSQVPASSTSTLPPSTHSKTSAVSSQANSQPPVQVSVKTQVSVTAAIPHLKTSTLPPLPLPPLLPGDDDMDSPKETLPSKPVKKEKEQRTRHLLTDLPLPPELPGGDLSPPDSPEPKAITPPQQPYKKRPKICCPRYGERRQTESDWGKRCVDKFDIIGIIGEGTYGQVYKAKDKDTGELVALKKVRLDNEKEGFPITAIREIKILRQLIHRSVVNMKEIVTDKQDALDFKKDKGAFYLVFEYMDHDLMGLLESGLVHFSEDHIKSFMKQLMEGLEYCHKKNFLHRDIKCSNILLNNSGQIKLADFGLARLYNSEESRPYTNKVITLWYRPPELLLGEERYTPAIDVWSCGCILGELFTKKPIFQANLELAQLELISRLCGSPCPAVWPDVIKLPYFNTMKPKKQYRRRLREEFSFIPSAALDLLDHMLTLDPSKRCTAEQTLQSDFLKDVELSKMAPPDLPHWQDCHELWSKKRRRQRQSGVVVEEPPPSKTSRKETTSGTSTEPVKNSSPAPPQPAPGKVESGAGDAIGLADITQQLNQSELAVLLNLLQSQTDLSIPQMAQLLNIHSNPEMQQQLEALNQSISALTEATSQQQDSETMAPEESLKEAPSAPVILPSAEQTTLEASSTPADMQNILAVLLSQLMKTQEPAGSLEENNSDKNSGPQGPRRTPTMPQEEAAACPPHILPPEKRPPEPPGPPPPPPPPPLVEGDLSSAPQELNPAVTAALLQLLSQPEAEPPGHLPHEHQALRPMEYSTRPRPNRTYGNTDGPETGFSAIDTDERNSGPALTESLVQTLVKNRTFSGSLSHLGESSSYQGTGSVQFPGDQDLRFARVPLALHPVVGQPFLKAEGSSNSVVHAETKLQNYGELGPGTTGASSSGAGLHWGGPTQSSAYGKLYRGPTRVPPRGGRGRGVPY
Sequence of CDK12 (O75909 whole entry partner): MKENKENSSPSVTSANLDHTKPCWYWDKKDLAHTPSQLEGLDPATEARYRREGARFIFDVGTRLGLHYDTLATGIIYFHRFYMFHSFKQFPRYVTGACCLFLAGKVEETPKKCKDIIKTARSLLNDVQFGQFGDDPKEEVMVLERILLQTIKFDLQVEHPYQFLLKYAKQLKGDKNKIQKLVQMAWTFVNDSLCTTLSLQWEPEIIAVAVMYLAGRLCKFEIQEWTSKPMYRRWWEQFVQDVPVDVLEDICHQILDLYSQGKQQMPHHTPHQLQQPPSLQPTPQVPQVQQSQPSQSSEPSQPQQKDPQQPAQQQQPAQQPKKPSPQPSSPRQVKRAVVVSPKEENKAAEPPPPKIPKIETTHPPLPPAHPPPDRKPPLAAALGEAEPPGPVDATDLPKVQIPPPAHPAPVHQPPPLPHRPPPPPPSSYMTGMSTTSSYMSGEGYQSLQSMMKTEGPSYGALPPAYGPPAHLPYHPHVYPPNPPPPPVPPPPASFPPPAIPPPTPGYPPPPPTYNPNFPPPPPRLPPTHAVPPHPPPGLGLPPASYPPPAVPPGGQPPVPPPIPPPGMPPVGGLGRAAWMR

SMILES	IC50	inhibition at 10 µM
COCCOc1cc(NC(=O)Cc2ccc(C3=CCN(C#N)CC3)nc2)ncc1Cl [Compound 22, N-(5-chloro-4-(2-methoxyethoxy)pyridin-2-yl)-2-(1′-cyano-1′,2′,3′,6′-tetrahydro-[2,4′-bipyridin]-5-yl)acetamide]	< 0.01 µM	91%
CC(C)(O)c1cc(NC(=O)Cc2ccc(C3=CCN(C#N)CC3)nc2)ncc1Cl [Compound 23, N-(5-chloro-4-(2-hydroxypropan-2-yl)pyridin-2-yl)-2-(1′-cyano-1′,2′,3′,6′-tetrahydro-[2,4′-bipyridin]-5-yl)acetamide]	< 0.01 µM	96%
N#CN1CC=C(c2ccc(CC(=O)Nc3cc(O[C@@H]4CCOC4)c(Cl)cn3)cn2)CC1 [Compound 26, (R)-N-(5-chloro-4-((tetrahydrofuran-3-yl)oxy)pyridin-2-yl)-2-(1′-cyano-1′,2′,3′,6′-tetrahydro-[2,4′-bipyridin]-5-yl)acetamide]	< 0.01 µM	99%
N#CN1CC=C(c2ccc(CC(=O)Nc3cc(O[C@H]4CCOC4)c(Cl)cn3)cn2)CC1 [Compound 27, (S)-N-(5-chloro-4-((tetrahydrofuran-3-yl)oxy)pyridin-2-yl)-2-(1′-cyano-1′,2′,3′,6′-tetrahydro-[2,4′-bipyridin]-5-yl)acetamide]	< 0.01 µM	93%
N#CN1CC=C(c2ccc(CC(=O)Nc3cc(OC4CCC4)c(Cl)cn3)cn2)CC1 [Compound 28, N-(5-chloro-4-cyclobutoxypyridin-2-yl)-2-(1′-cyano-1′,2′,3′,6′-tetrahydro-[2,4′-bipyridin]-5-yl)acetamide]	< 0.01 µM	95%
CC(CN(C)C)Oc1cc(NC(=O)Cc2ccc(C3=CCN(C#N)CC3)nc2)ncc1Cl (stereo not shown) [Compound 31, N-(5-chloro-4-((1-(dimethylamino)propan-2-yl)oxy)pyridin-2-yl)-2-(1′-cyano-1′,2′,3′,6′-tetrahydro-[2,4′-bipyridin]-5-yl)acetamide]	< 0.01 µM	89%
CN1CCC[C@@H](Oc2cc(NC(=O)Cc3ccc(C4=CCN(C#N)CC4)nc3)ncc2Cl)C1 [Compound 32, (R)-N-(5-chloro-4-((1-methylpiperidin-3-yl)oxy)pyridin-2-yl)-2-(1′-cyano-1′,2′,3′,6′-tetrahydro-[2,4′-bipyridin]-5-yl)acetamide]	< 0.01 µM	84%
CN1CCC[C@H](Oc2cc(NC(=O)Cc3ccc(C4=CCN(C#N)CC4)nc3)ncc2Cl)C1 [Compound 33, (S)-N-(5-chloro-4-((1-methylpiperidin-3-yl)oxy)pyridin-2-yl)-2-(1′-cyano-1′,2′,3′,6′-tetrahydro-[2,4′-bipyridin]-5-yl)acetamide]	< 0.01 µM	88%
COc1cc(NC(=O)Cc2ccc(C3=CCCN(C#N)C3)nc2)ncc1Cl [Compound 34, N-(5-chloro-4-methoxypyridin-2-yl)-2-(1′-cyano-1′,2′,5′,6′-tetrahydro-[2,3′-bipyridin]-5-yl)acetamide]	< 0.01 µM	91%
COC[C@H](C)Oc1cc(NC(=O)Cc2ccc(C3=CCCN(C#N)C3)nc2)ncc1Cl [Compound 35, (S)-N-(5-chloro-4-((1-methoxypropan-2-yl)oxy)pyridin-2-yl)-2-(1′-cyano-1′,2′,5′,6′-tetrahydro-[2,3′-bipyridin]-5-yl)acetamide]	< 0.01 µM	95%
COC[C@@H](C)Oc1cc(NC(=O)Cc2ccc(C3=CCCN(C#N)C3)nc2)ncc1Cl [Compound 36, (R)-N-(5-chloro-4-((1-methoxypropan-2-yl)oxy)pyridin-2-yl)-2-(1′-cyano-1′,2′,5′,6′-tetrahydro-[2,3′-bipyridin]-5-yl)acetamide]	< 0.01 µM	95%
CN1CCC(Oc2cc(NC(=O)Cc3ccc(C4=CCCN(C#N)C4)nc3)ncc2Cl)CC1 [Compound 37, N-(5-chloro-4-((1-methylpiperidin-4-yl)oxy)pyridin-2-yl)-2-(1′-cyano-1′,2′,5′,6′-tetrahydro-[2,3′-bipyridin]-5-yl)acetamide]	< 0.01 µM	94%
CN1CC[C@@H](Oc2cc(NC(=O)Cc3ccc(C4=CCCN(C#N)C4)nc3)ncc2Cl)C1 [Compound 38, (R)-N-(5-chloro-4-((1-methylpyrrolidin-3-yl)oxy)pyridin-2-yl)-2-(1′-cyano-1′,2′,5′,6′-tetrahydro-[2,3′-bipyridin]-5-yl)acetamide]	< 0.01 µM	88%
CN1CC[C@H](Oc2cc(NC(=O)Cc3ccc(C4=CCCN(C#N)C4)nc3)ncc2Cl)C1 [Compound 39, (S)-N-(5-chloro-4-((1-methylpyrrolidin-3-yl)oxy)pyridin-2-yl)-2-(1′-cyano-1′,2′,5′,6′-tetrahydro-[2,3′-bipyridin]-5-yl)acetamide]	0.01 to 0.1 µM	98%
N#CN1CCC=C(c2ccc(CC(=O)Nc3cc(O[C@@H]4CCOC4)c(Cl)cn3)cn2)C1 [Compound 40, (R)-N-(5-chloro-4-((tetrahydrofuran-3-yl)oxy)pyridin-2-yl)-2-(1′-cyano-1′,2′,5′,6′-tetrahydro-[2,3′-bipyridin]-5-yl)acetamide]	< 0.01 µM	91%
N#CN1CCC=C(c2ccc(CC(=O)Nc3cc(O[C@H]4CCOC4)c(Cl)cn3)cn2)C1 [Compound 41, (S)-N-(5-chloro-4-((tetrahydrofuran-3-yl)oxy)pyridin-2-yl)-2-(1′-cyano-1′,2′,5′,6′-tetrahydro-[2,3′-bipyridin]-5-yl)acetamide]	< 0.01 µM	96%

Further lines, results first:

IC50	inhibition at 10 µM	SMILES
> 0.1 µM	116%	CC(CN(C)C)Oc1cc(NC(=O)Cc2ccc(C3=CCCN(C#N)C3)nc2)ncc1Cl (stereo not shown) [Compound 42, N-(5-chloro-4-((1-(dimethylamino)propan-2-yl)oxy)pyridin-2-yl)-2-(1′-cyano-1′,2′,5′,6′-tetrahydro-[2,3′-bipyridin]-5-yl)acetamide]
< 0.01 µM	87%	N#CN1CCC=C(c2ccc(CC(=O)Nc3cc(OC4CCCOC4)c(Cl)cn3)cn2)C1 (stereo not shown) [Compound 43, N-(5-chloro-4-((tetrahydro-2H-pyran-3-yl)oxy)pyridin-2-yl)-2-(1′-cyano-1′,2′,5′,6′-tetrahydro-[2,3′-bipyridin]-5-yl)acetamide]
< 0.01 µM	88%	CN1CCC[C@@H](Oc2cc(NC(=O)Cc3ccc(C4=CCCN(C#N)C4)nc3)ncc2Cl)C1 [Compound 46, (R)-N-(5-chloro-4-((1-methylpiperidin-3-yl)oxy)pyridin-2-yl)-2-(1′-cyano-1′,2′,5′,6′-tetrahydro-[2,3′-bipyridin]-5-yl)acetamide]
0.01 to 0.1 µM	85%	CN1CCC[C@H](Oc2cc(NC(=O)Cc3ccc(C4=CCCN(C#N)C4)nc3)ncc2Cl)C1 [Compound 47, (S)-N-(5-chloro-4-((1-methylpiperidin-3-yl)oxy)pyridin-2-yl)-2-(1′-cyano-1′,2′,5′,6′-tetrahydro-[2,3′-bipyridin]-5-yl)acetamide]
< 0.01 µM	90%	COc1cc(NC(=O)C(C)c2ccc(C3=CCCN(C#N)C3)nc2)ncc1Cl (stereo not shown) [Compound 48, N-(5-chloro-4-methoxypyridin-2-yl)-2-(1′-cyano-1′,2′,5′,6′-tetrahydro-[2,3′-bipyridin]-5-yl)propanamide]
< 0.01 µM	102%	COc1cc(NC(=O)C(C)c2ccc(C3=CCN(C#N)CC3)nc2)ncc1Cl (stereo not shown) [Compound 51, N-(5-chloro-4-methoxypyridin-2-yl)-2-(1′-cyano-1′,2′,3′,6′-tetrahydro-[2,4′-bipyridin]-5-yl)propanamide]
> 0.1 µM	77%	CN1CCCC1COc1cc(NC(=O)Cc2ccc(C3=CCN(C#N)CC3)nc2)ncc1Cl (stereo not shown) [Compound 54, N-(5-chloro-4-((1-methylpyrrolidin-2-yl)methoxy)pyridin-2-yl)-2-(1′-cyano-1′,2′,3′,6′-tetrahydro-[2,4′-bipyridin]-5-yl)acetamide]
> 0.1 µM	86%	CN1CCCC1COc1cc(NC(=O)Cc2ccc(C3=CCCN(C#N)C3)nc2)ncc1Cl (stereo not shown) [Compound 55, N-(5-chloro-4-((1-methylpyrrolidin-2-yl)methoxy)pyridin-2-yl)-2-(1′-cyano-1′,2′,5′,6′-tetrahydro-[2,3′-bipyridin]-5-yl)acetamide]
< 0.01 µM	100%	CNC(=O)C(C)Oc1cc(NC(=O)Cc2ccc(C3=CCCN(C#N)C3)nc2)ncc1Cl (stereo not shown) [Compound 56, 2-((5-chloro-2-(2-(1′-cyano-1′,2′,5′,6′-tetrahydro-[2,3′-bipyridin]-5-yl)acetamido)pyridin-4-yl)oxy)-N-methylpropanamide]
< 0.01 µM	89%	COc1cc(NC(=O)Cc2ccc(C3CCN(C#N)CC3)nc2)ncc1Cl [Compound 59, N-(5-chloro-4-methoxypyridin-2-yl)-2-(6-(1-cyanopiperidin-4-yl)pyridin-3-yl)acetamide]
